This passage reports mutagenic call results from PubChem BioAssay AID1259407 (Chemical Carcinogenesis Research Information System (CCRIS), 2018).

The source made the active and inactive calls. How the calls were made is not given here.

The data set relates to CCRIS mutagenicity, Ames/micronucleus/aberration tests. Briefly: CCRIS mutagenicity studies.
The mark [1] stands for this setting: Test System: AMES SALMONELLA TYPHIMURIUM, Strain/Indicator: TA98, Metabolic Activation: NONE, Method: PREINCUBATION
Setting [2] is: Test System: AMES SALMONELLA TYPHIMURIUM, Strain/Indicator: TA100, Metabolic Activation: NONE, Method: PREINCUBATION
Setting [3] is: Test System: AMES SALMONELLA TYPHIMURIUM, Strain/Indicator: TA97, Metabolic Activation: NONE, Method: STANDARD PLATE.
Where [4] appears, read: Test System: AMES SALMONELLA TYPHIMURIUM, Strain/Indicator: TA98, Metabolic Activation: NONE, Method: STANDARD PLATE.
[5] abbreviates: Test System: AMES SALMONELLA TYPHIMURIUM, Strain/Indicator: TA100, Metabolic Activation: NONE, Method: STANDARD PLATE.
[6] abbreviates: Test System: AMES SALMONELLA TYPHIMURIUM, Strain/Indicator: TA98, Metabolic Activation: RAT, LIVER, S-9, AROCLOR 1254, Method: STANDARD PLATE.
The mark [7] stands for this setting: Test System: AMES SALMONELLA TYPHIMURIUM, Strain/Indicator: TA100, Metabolic Activation: RAT, LIVER, S-9, AROCLOR 1254, Method: STANDARD PLATE.

In the case of `OC1c2ccccc2Oc2ccccc21`, the mutagenic call reads like this: (Test System: AMES SALMONELLA TYPHIMURIUM, Strain/Indicator: TA97, Metabolic Activation: NONE, Method: PREINCUBATION) “active; positive”; (Test System: AMES SALMONELLA TYPHIMURIUM, Strain/Indicator: TA97, Metabolic Activation: RAT, LIVER, S-9, PHENOBARBITAL AND 5,6-BENZOFLAVONE, Method: PREINCUBATION) “active; positive”; under setting [1], “active; positive”; (Test System: AMES SALMONELLA TYPHIMURIUM, Strain/Indicator: TA98, Metabolic Activation: RAT, LIVER, S-9, PHENOBARBITAL AND 5,6-BENZOFLAVONE, Method: PREINCUBATION) “active; positive”; under setting [2], “inactive; negative”; (Test System: AMES SALMONELLA TYPHIMURIUM, Strain/Indicator: TA100, Metabolic Activation: RAT, LIVER, S-9, PHENOBARBITAL AND 5,6-BENZOFLAVONE, Method: PREINCUBATION) “inactive; negative”. Moreover, the mutagenic call is, setting by setting: (Test System: AMES SALMONELLA TYPHIMURIUM, Strain/Indicator: TA2637, Metabolic Activation: NONE, Method: PREINCUBATION) “active; positive”; (Test System: AMES SALMONELLA TYPHIMURIUM, Strain/Indicator: TA2637, Metabolic Activation: RAT, LIVER, S-9, PHENOBARBITAL AND 5,6-BENZOFLAVONE, Method: PREINCUBATION) “inactive; negative”.
For `COc1ccc(C(=O)N2CCN(c3ccc4c(c3)CCC(=O)N4)CC2)cc1OC`, the mutagenic call reads like this: under setting [3], “inactive; negative”; (Test System: AMES SALMONELLA TYPHIMURIUM, Strain/Indicator: TA97, Metabolic Activation: S-9, Method: STANDARD PLATE) “inactive; negative”; under setting [1], “inactive; negative”; under setting [4], “inactive; negative”; (Test System: AMES SALMONELLA TYPHIMURIUM, Strain/Indicator: TA98, Metabolic Activation: RAT, LIVER, S-9, Method: PREINCUBATION) “inactive; negative”; (Test System: AMES SALMONELLA TYPHIMURIUM, Strain/Indicator: TA98, Metabolic Activation: S-9, Method: STANDARD PLATE) “inactive; negative”. Further, the mutagenic call was “inactive; negative” under setting [2]; “inactive; negative” under setting [5]; “inactive; negative” (Test System: AMES SALMONELLA TYPHIMURIUM, Strain/Indicator: TA100, Metabolic Activation: RAT, LIVER, S-9, Method: PREINCUBATION); “inactive; negative” (Test System: AMES SALMONELLA TYPHIMURIUM, Strain/Indicator: TA102, Metabolic Activation: NONE, Method: STANDARD PLATE); “inactive; negative” (Test System: AMES SALMONELLA TYPHIMURIUM, Strain/Indicator: TA102, Metabolic Activation: S-9, Method: STANDARD PLATE); “inactive; negative” (Test System: AMES SALMONELLA TYPHIMURIUM, Strain/Indicator: TA1535, Metabolic Activation: NONE, Method: PREINCUBATION). In addition, the mutagenic call is “inactive; negative” (Test System: AMES SALMONELLA TYPHIMURIUM, Strain/Indicator: TA1535, Metabolic Activation: RAT, LIVER, S-9, Method: PREINCUBATION); “inactive; negative” (Test System: AMES SALMONELLA TYPHIMURIUM, Strain/Indicator: TA1537, Metabolic Activation: NONE, Method: PREINCUBATION); “inactive; negative” (Test System: AMES SALMONELLA TYPHIMURIUM, Strain/Indicator: TA1537, Metabolic Activation: RAT, LIVER, S-9, Method: PREINCUBATION); “inactive; negative” (Test System: AMES SALMONELLA TYPHIMURIUM, Strain/Indicator: TA1538, Metabolic Activation: NONE, Method: PREINCUBATION); “inactive; negative” (Test System: AMES SALMONELLA TYPHIMURIUM, Strain/Indicator: TA1538, Metabolic Activation: RAT, LIVER, S-9, Method: PREINCUBATION); “inactive; negative” (Test System: E. COLI, Strain/Indicator: WP2 UVRA, Metabolic Activation: NONE, Method: PREINCUBATION). Further, the mutagenic call (Test System: E. COLI, Strain/Indicator: WP2 UVRA, Metabolic Activation: RAT, LIVER, S-9, Method: PREINCUBATION) was “inactive; negative”.
Turning to `Cn1cnc2c(NO)ncnc21`, the mutagenic call under setting [3] is “inactive; negative”; the mutagenic call (Test System: AMES SALMONELLA TYPHIMURIUM, Strain/Indicator: TA97, Metabolic Activation: RAT, LIVER, S-9, AROCLOR 1254, Method: STANDARD PLATE) is “inactive; negative”; the mutagenic call under setting [4] is “inactive; negative”; the mutagenic call under setting [6] is “active; positive”; the mutagenic call under setting [5] is “inactive; negative”; the mutagenic call under setting [7] is “inactive; negative”.
Regarding `BrCc1c2ccccc2cc2c1ccc1ccccc12`, the mutagenic call is “active; positive” under setting [4]; “active; positive” under setting [5]; “active; positive” (Test System: CHINESE HAMSTER V-79, Strain/Indicator: V-79/8-AZAGUANINE, Metabolic Activation: NONE, Method: STANDARD PLATE); “active; positive” (Test System: E. COLI, Strain/Indicator: WP2, Metabolic Activation: NONE, Method: FLUCTUATION); “active; positive” (Test System: E. COLI, Strain/Indicator: WP2 UVRA, Metabolic Activation: NONE, Method: FLUCTUATION); “active; positive” (Test System: UDS HUMAN CELLS, Strain/Indicator: THY INCORP (NON-S-PHASE), Metabolic Activation: NONE, Method: LIQUID SCINTILLATION COUNTING). In addition, the mutagenic call is, setting by setting: (Test System: UDS HUMAN FIBROBLASTS, Strain/Indicator: THY INCORP (NON-S-PHASE), Metabolic Activation: NONE, Method: AUTORADIOGRAPHY) “active; positive”; (Test System: UDS RODENT CELLS, Strain/Indicator: THY INCORP (NON-S-PHASE), Metabolic Activation: NONE, Method: LIQUID SCINTILLATION COUNTING) “active; positive”.
Take `CCc1cccc(CC)c1NC(C)=O`: the mutagenic call under setting [1] is “inactive; negative” and the mutagenic call (Test System: AMES SALMONELLA TYPHIMURIUM, Strain/Indicator: TA98, Metabolic Activation: RAT, LIVER, MICROSOMES, PHENOBARBITAL, Method: PREINCUBATION) was “inactive; negative”.
Consider `Cc1cc2ccccc2c2ccc3c(c12)[C@H](O)[C@@H](O)[C@H]1O[C@@H]31`, for which, under setting [2], the mutagenic call was “inactive; negative”.
As to `COC(=O)/C=C/c1ccc([N+](=O)[O-])o1`, the mutagenic call under setting [1] was “active; positive”.
As to `O=C1c2c(O)ccc3c2[C@H](c2ccc(O)c4c2[C@H]3[C@H]2O[C@H]2C4=O)[C@H]2O[C@@H]12`, the mutagenic call under setting [4] was “active; positive”; the mutagenic call under setting [6] was “active; positive”; the mutagenic call (Test System: AMES SALMONELLA TYPHIMURIUM, Strain/Indicator: TA98, Method: STANDARD PLATE) is “active; positive”; the mutagenic call under setting [5] is “active; positive”; the mutagenic call under setting [7] is “active; positive”; the mutagenic call (Test System: AMES SALMONELLA TYPHIMURIUM, Strain/Indicator: TA1537, Metabolic Activation: NONE, Method: STANDARD PLATE) is “active; positive”. For the setting “Test System: AMES SALMONELLA TYPHIMURIUM, Strain/Indicator: TA1537, Metabolic Activation: RAT, LIVER, S-9, AROCLOR 1254, Method: STANDARD PLATE”, the mutagenic call was “active; positive”.
Consider `CC(C)c1cc(-c2ccccc2)ccc1N`, for which the mutagenic call under setting [4] was “inactive; negative”; the mutagenic call (Test System: AMES SALMONELLA TYPHIMURIUM, Strain/Indicator: TA98, Metabolic Activation: RAT LIVER S-9, AROCLOR, Method: STANDARD PLATE) was “active; positive”; the mutagenic call under setting [5] was “inactive; negative”; the mutagenic call (Test System: AMES SALMONELLA TYPHIMURIUM, Strain/Indicator: TA100, Metabolic Activation: RAT LIVER S-9, AROCLOR, Method: STANDARD PLATE) was “active; positive”.
For `NC(Cc1ccccc1)C(=O)O` (stereo unspecified), the mutagenic call (Test System: AMES SALMONELLA TYPHIMURIUM, Strain/Indicator: TA98, Metabolic Activation: RAT LIVER S-9, CHLOROPHENE, Method: STANDARD PLATE (COMPOUND HEATED AT 250 DEGREES CELSIUS FOR 20 MIN)) was “inactive; negative”.
For the compound `CCCc1cc(=O)oc2c3c(c4c(c12)OC(C)(C)CC4)O[C@@H](C)[C@H](C)[C@@H]3O`, the mutagenic call reads like this: (Test System: Mouse lymphoma, Strain/Indicator: L5178Y (tk+/tk-), Metabolic Activation: None, Method: Suspension/plate) “inactive; negative”; (Test System: Mouse lymphoma, Strain/Indicator: L5178Y (tk+/tk-), Metabolic Activation: Rat, Liver, S-9, Aroclor 1254, Method: Suspension/plate) “inactive; negative”.
Regarding `Fc1ccc2ncccc2c1F`, where the note is “Test System: AMES SALMONELLA TYPHIMURIUM, Strain/Indicator: TA100, Metabolic Activation: RAT LIVER S-9, PHENOBARBITAL AND 5,6-BENZOFLAVONE, Method: PREINCUBATION”, the mutagenic call is “active; positive”.
Turning to `O=c1c(O)c2c(c3c1ccc1[nH]cccc13)O2`, the mutagenic call under setting [5] is “inactive; negative”.
